Laboratory results published in patent publication US20260347403A1, “FUNGICIDAL COMPOUND” (priority 2022, published 2026).
Where two headings read alike, the source gives them in different places. Numbered stars: 1 amine (or outer) side, 2 acyl side, 3 side chain; on linkers, the order of the positions; unused ones are H or OH. Bridge positions count the residues as written; N and C are the ends. Square brackets hold non-standard residues; d marks the D form. Peptide text beside a SMILES is read from it. * marks the point of attachment. X1 = NC(=O)CC(O)C(N[*:1])C(=O)[*:2]; NMeF = CN[CH](Cc1ccccc1)C(=O)O; NMeN = CN[CH](CC(N)=O)C(=O)O; X2 = CCC(C)CCCCCCCCCCC(=O)*

Legend:
[1] = system: Puccinia recondita f. sp. tritici; assay: Leaf disc/segment test on wheat, Puccinia recondita f. sp. tritici (Brown Rust), 7-9 days after application; type: in vivo
Procedure: Leaf disks or leaf segments of various plant species were cut from plants grown in the greenhouse. The cut leaf disks, or segments were placed in multiwell plates (24-well format) onto water agar. The leaf disks were sprayed with a test solution before inoculation with the fungal spores. Compounds to be tested were prepared as DMSO solutions (max. 10 mg/ml) which were diluted to the appropriate concentration with water plus 0.025% Tween® 20 just before spraying. The inoculated leaf disks or segments were incubated under defined conditions (temperature, relative humidity, light, etc.) according to the respective test system. A single evaluation of disease level was carried out by visual evaluation 3-9 days days after inoculation, depending on the pathosystem as indicated below. Percent disease control relative to the untreated check leaf disks or segments was then calculated.
Puccinia recondita f. Sp. Tritici/Wheat/Leaf Disc (Brown Rust)
Wheat leaf segments cv. Kanzler were placed on agar in multiwell plates (24-well format) and sprayed with the formulated test compound diluted in water. The leaf disks were inoculated with a spore suspension of the fungus 1 day after application. The inoculated leaf segments were incubated at 19 °C and 75% rh under a light regime of 12 h light/12 h darkness in a climate cabinet and the activity of a compound was assessed as percent disease control compared to untreated when an appropriate level of disease damage appears in untreated check leaf segments (7-9 days after application).

[2] = system: Puccinia recondita f. sp. tritici; assay: Leaf painting assay in wheat seedling, Puccinia recondita; type: in vivo, Puccinia recondita f. sp. tritici on wheat (variety Arina); conditions: for % reduction of fungal growth: middle segment
Procedure: Wheat seedlings of the variety Riband (for Zymoseptoria tritici trials) or variety Arina (for Puccinia recondite trials) were grown in a glasshouse until 14 d after seeding. At this time, such seedlings usually have a first leaf fully emerged (designated L1), a second leaf fully emerged (L2) and a third leaf (L3) that was partially emerged and in the process of development. Using a permanent pen, two dots were applied on the second leaf such as to generate three segments of roughly equal size: Segment A (at the base), segment B (middle part) and segment C (upper part of the leaf). A stock solution of the test compound was produced in DMSO at a concentration of 10′000 ppm. […] The diluted compound was applied to the middle segment of L2 using a conventional cotton stick; the cotton stick was soaked in the diluted compound and rubbed several times on the adaxial leaf surface between the two marks. 1 day later, the complete plant was inoculated with a fungal spore suspension using a paint brush and application of the spore suspension until before run-off.
For infection with Puccinia recondita: The test plants were inoculated by spraying them with a spore suspension 1 day after application (spore suspension at 80′000 spores per ml in water supplemented with Tween® 20 at 0.1%). After an incubation period of 1 day at 20 °C and 95% rh, the inoculated test plants were kept at 20 °C and 60% rh in a greenhouse.
The three segments of the leaf were evaluated individually.

[3] = system: several phytopathogenic fungi; assay: Liquid culture assays, summary over the fungi tested; type: cell-based; conditions: up to; Tables 2 and 3
Procedure: Mycelia fragments or conidia suspensions of a fungus, prepared either freshly from liquid cultures of the fungus or from cryogenic storage, were directly mixed into nutrient broth.
A stock solution for compound of Formula I(a) and Formula I(b) was produced in DMSO (max. 10 mg/ml), which was diluted with water plus 0.025% Tween®20 to produce a 10× concentrated sample and 10 μl of this solution was pipetted into a microtiter plate (96-well format). The nutrient broth containing the fungal spores/mycelia fragments was then added to give an end concentration of the tested compound. The test plates were incubated in the dark at 24 °C and 96% rh. The inhibition of fungal growth was determined photometrically after 2-7 days, depending on the pathosystem, and percent antifungal activity relative to the untreated check was calculated.
The effect of the test compound (Formula I(a), I(b) and Lipopeptin A) was tested against the following fungi under the conditions as outlined above and specifically herein below: […]

[4] = system: Pyricularia oryzae; type: cell-based; conditions: line H malonomicin alone, concentrations in Table 8
[5] = system: Zymoseptoria tritici; assay: Liquid culture 96-well mixture assay with malonomicin, Zymoseptoria tritici, 72 hrs; type: cell-based; conditions: read-out: control of fungal growth (% reduction)
Procedure: (§1) A stock solution for compound of Formula I(a) was produced in DMSO (max. 10 mg/ml). Malonomicin was produced according to Law et al, 2018 (Nature Catalys is |VOL 1|DECEMBER 2018|977-984). A stock solution of malonomicin was produced in water plus 0.025% Tween® 20.
(§2) Assays to test efficacy of mixtures of the lipopeptide compound of Formula I(a) in combination with malonomicin on the control of fungal pathogens in a liquid culture assay were designed for a 96well plate as outlined in table 1:
(§3) The 96 well plate design allows to compare disease control of the mixture with disease control of the respective single compound at the same rate.
(§4) A master plate with 10× concentrated solution of the compound stock solutions diluted in water plus 0.025% Tween® 20 was prepared. The concentration of DMSO (from the stock of compound of Formula (a)) and Tween® 20 was kept constant in all cells of the master plate. 10 μl was transferred from the master plate to a 96well test plate. The nutrient broth containing the fungal spores/mycelia fragments was then added to the test plate to give an end concentration of 1× for the tested compounds (as outlined in Table 8). The test plates were incubated in the dark at 24 °C and 96% rh. The inhibition of fungal growth was determined photometrically after ca 3 days, and percent fungal growth reduction relative to the untreated check was calculated.
Zymoseptoria tritici (EPPO Code: SEPTTR)
Conidia of the fungus from cryogenic storage were directly mixed into nutrient broth (PDB: potato dextrose broth).

[6] = system: Sclerotinia sclerotiorum; assay: Liquid culture 96-well mixture assay with malonomicin, Sclerotinia sclerotiorum, 72 hrs; type: cell-based; conditions: line H malonomicin alone, concentrations in Table 8
Procedure: as §1, §2, §3, §4
Sclerotinia sclerotiorum (EPPO Code: SCLESC)
Mycelial fragments of the fungus prepared from a fresh liquid culture were directly mixed into nutrient broth (PDB: potato dextrose broth).

[7] = plate column (2), highest malonomicin concentration, lines A-G with compound of Formula I(a) dilution series
[8] = plate column (3) of malonomicin dilution series, lines A-G with compound of Formula I(a)
[9] = plate column (4) of malonomicin dilution series, lines A-G with compound of Formula I(a)
[10] = plate column (5) of malonomicin dilution series, lines A-G with compound of Formula I(a)
[11] = plate column (6) of malonomicin dilution series, lines A-G with compound of Formula I(a)
[12] = plate column (7) of malonomicin dilution series, lines A-G with compound of Formula I(a)
[13] = plate column (8) of malonomicin dilution series, lines A-G with compound of Formula I(a)
[14] = plate column (9) of malonomicin dilution series, lines A-G with compound of Formula I(a)
[15] = plate column (10) of malonomicin dilution series, lines A-G with compound of Formula I(a)
[16] = plate column (11), lowest malonomicin concentration, lines A-G with compound of Formula I(a)

CCC(C)CCCCCCCCCCC(=O)NC1C(=O)NC(CC(=O)O)C(=O)NC(C(O)CC(N)=O)C(=O)NC(CO)C(=O)N(C)C(CC(N)=O)C(=O)N(C)C(Cc2ccccc2)C(=O)NC(CCC(N)=O)C(=O)NC(CCC(=O)O)C(=O)OC1C (stereo not shown) [Formula I(b)] (X2-TD[X1]S[NMeN][NMeF]QE; ester 1-C; configuration not given here)
up to 100%: control of phytopathogenic fungi [3]
0%: % reduction of fungal growth ([1]; Table 4, 0.82 ppm) | % reduction of fungal growth ([1]; Table 4, 2.5 ppm) | % reduction of fungal growth ([1]; Table 4, 7.4 ppm) | % reduction of fungal growth ([1]; Table 4, 22 ppm) | % reduction of fungal growth ([1]; Table 5, 0.82 ppm) | % reduction of fungal growth ([1]; Table 5, 2.5 ppm) | % reduction of fungal growth ([1]; Table 5, 7.4 ppm)
up to 70%: control on the treated area (middle segment) ([2]; up to, Table 6, Puccinia)
70%: % reduction of fungal growth ([1]; Table 4, 200 ppm) | % reduction of fungal growth ([1]; Table 5, 67 ppm)
67%: % reduction of fungal growth ([2]; 200 ppm)
95%: % reduction of fungal growth ([1]; Table 5, 200 ppm)
55%: % reduction of fungal growth ([2]; 20 ppm)
45%: % reduction of fungal growth ([1]; Table 4, 67 ppm)
35%: % reduction of fungal growth ([1]; Table 5, 22 ppm)

NC[C@@H]1NC(=O)C(C(=O)CC(NC(=O)[C@@H](N)CO)(C(=O)O)C(=O)O)=C1O [malonomicin, {[(2S)-2-amino-3-hydroxypropanoyl]amino}{2-[(5S)-5-(aminomethyl)-4-hydroxy-2-oxo-2,5-dihydro-1H-pyrrol-3-yl]-2-oxoethyl}malonic acid]
20%: control of fungal growth (% reduction of growth in the test well as compared to untreated check) [4, 12] | control of fungal growth (% reduction of growth in the test well as compared to untreated check) [4, 13] | inhibition of growth at 15.63 ppm ([5]; malonomicin 15.63 ppm) | inhibition of growth at 31.25 ppm ([5]; malonomicin 31.25 ppm) | control of fungal growth (% reduction of growth in the test well as compared to untreated check) [6, 12]
90%: control of fungal growth (% reduction of growth in the test well as compared to untreated check) [4, 7] | inhibition of growth at 500 ppm ([5]; malonomicin 500 ppm) | control of fungal growth (% reduction of growth in the test well as compared to untreated check) [6, 7] | control of fungal growth (% reduction of growth in the test well as compared to untreated check) [6, 8] | control of fungal growth (% reduction of growth in the test well as compared to untreated check) [6, 9]
100%: inhibition of growth at 1000 ppm ([5]; malonomicin 1000 ppm)
0%: control of fungal growth (% reduction of growth in the test well as compared to untreated check) [4, 14] | control of fungal growth (% reduction of growth in the test well as compared to untreated check) [4, 15] | control of fungal growth (% reduction of growth in the test well as compared to untreated check) [4, 16] | inhibition of growth at 1 ppm ([5]; malonomicin 1.00 ppm) | inhibition of growth at 3 ppm ([5]; malonomicin 3.00 ppm) | inhibition of growth at 7.81 ppm ([5]; malonomicin 7.81 ppm) | control of fungal growth (% reduction of growth in the test well as compared to untreated check) [6, 13] | control of fungal growth (% reduction of growth in the test well as compared to untreated check) [6, 14] | control of fungal growth (% reduction of growth in the test well as compared to untreated check) [6, 15] | control of fungal growth (% reduction of growth in the test well as compared to untreated check) [6, 16]
70%: control of fungal growth (% reduction of growth in the test well as compared to untreated check) [4, 8] | control of fungal growth (% reduction of growth in the test well as compared to untreated check) [4, 9] | inhibition of growth at 125 ppm ([5]; malonomicin 125 ppm) | inhibition of growth at 250 ppm ([5]; malonomicin 250 ppm) | control of fungal growth (% reduction of growth in the test well as compared to untreated check) [6, 10]
50%: control of fungal growth (% reduction of growth in the test well as compared to untreated check) [4, 10] | control of fungal growth (% reduction of growth in the test well as compared to untreated check) [4, 11] | inhibition of growth at 62.5 ppm ([5]; malonomicin 62.5 ppm) | control of fungal growth (% reduction of growth in the test well as compared to untreated check) [6, 11]
